Tests used:
oilseed rape = assay: Test C postemergence; assay type: in vivo, Brassica napus; conditions: for Plant response rating, Oilseed Rape: scale 0 to 100 (0 no effect, 100 complete control)
How it was run: (§1)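 Preemergence: seeds sown in a loam soil–sand blend and sprayed with test chemical in a non-phytotoxic solvent mixture containing surfactant. Postemergence: plants at 2 to 18 cm (1- to 4-leaf stage) in peat-based medium, treated with the same formulation. Greenhouse 13 to 15 days, then visual rating 0 (no effect) to 100 (complete control).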

waterhemp = assay: Test C postemergence; assay type: in vivo, Amaranthus rudis; conditions: for Plant response rating, Waterhemp: scale 0 to 100 (0 no effect, 100 complete control)
How it was run: as §1

pigweed [1] = assay: Test A postemergence; assay type: in vivo, Amaranthus retroflexus
How it was run: (§2)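 Compounds in non-phytotoxic solvent with surfactant applied as soil spray preemergence, or postemergence to plants 2-10 cm at one- to two-leaf stage, in loam/sand. After approximately 10 days in greenhouse, injury rated visually versus untreated controls, 0 (no effect) to 100 (complete control).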

blackgrass = assay: Test C postemergence; assay type: in vivo, Alopecurus myosuroides; conditions: for Plant response rating, Blackgrass: scale 0 to 100 (0 no effect, 100 complete control)
How it was run: as §1

johnsongrass = assay: Test C postemergence; assay type: in vivo, Sorghum halepense; conditions: for Plant response rating, Johnsongrass: scale 0 to 100 (0 no effect, 100 complete control)
How it was run: as §1

pigweed [2] = assay: Test A preemergence; assay type: in vivo, Amaranthus retroflexus; conditions: 0 to 100 scale where 0 is no effect and 100 is complete control
How it was run: as §2

galium = assay: Test C postemergence; assay type: in vivo, Galium aparine; conditions: for Plant response rating, Galium: scale 0 to 100 (0 no effect, 100 complete control)
How it was run: as §1

barnyardgrass [3] = assay: Test A preemergence; assay type: in vivo, Echinochloa crus-galli; conditions: 0 to 100 scale where 0 is no effect and 100 is complete control
How it was run: as §2

lambsquarters = assay: Test C postemergence; assay type: in vivo, Chenopodium album; conditions: for Plant response rating, Lambsquarters: scale 0 to 100 (0 no effect, 100 complete control)
How it was run: as §1

wild oat = assay: Test C postemergence; assay type: in vivo, Avena fatua; conditions: for Plant response rating, Oat, Wild: scale 0 to 100 (0 no effect, 100 complete control)
How it was run: as §1

barnyardgrass [4] = assay: Test C postemergence; assay type: in vivo, Echinochloa crus-galli; conditions: for Plant response rating, Barnyardgrass: scale 0 to 100 (0 no effect, 100 complete control)
How it was run: as §1

large (Lg) crabgrass = assay: Test C postemergence; assay type: in vivo, Digitaria sanguinalis; conditions: for Plant response rating, Crabgrass, Large: scale 0 to 100 (0 no effect, 100 complete control)
How it was run: as §1

giant foxtail = assay: Test A preemergence; assay type: in vivo, Setaria faberii; conditions: 0 to 100 scale where 0 is no effect and 100 is complete control
How it was run: as §2

[5] = 16 g ai/ha, postemergence, 0 is no effect, 100 is complete control
[6] = 125 g ai/ha, postemergence, visual rating
[7] = Postemergence, 31 g ai/ha, 13 to 15 days
[8] = 31 g ai/ha, visual, approximately 10 days

## N#Cc1cnn(-c2c(Br)cccc2Oc2ncc(Cl)cn2)c1 [Compound 140]
Oilseed rape; [5]
  Plant response rating (0 to 100), Oilseed Rape: 5
Oilseed rape; [6]
  Plant response rating, Oilseed Rape: 50
Oilseed rape; Postemergence, 62 g ai/ha
  Plant response rating, Oilseed Rape: 50
waterhemp; [5]
  Plant response rating (0 to 100), Waterhemp: 75
waterhemp; [6]
  Plant response rating, Waterhemp: 85
waterhemp; Postemergence, 62 g ai/ha
  Plant response rating, Waterhemp: 80
Pigweed [1]; 31 g ai/ha, 0 to 100 scale, 0 no effect, 100 complete control
  Plant response rating, Pigweed: 90
Pigweed [1]; 125 g ai/ha, 0 to 100 scale where 0 is no effect and 100 is complete control
  Pigweed plant response rating: 100
blackgrass; [5]
  Plant response rating (0 to 100), Blackgrass: 0
blackgrass; [6]
  Plant response rating, Blackgrass: 5
blackgrass; [7]
  Plant response rating, Blackgrass: 0
blackgrass; Postemergence, 62 g ai/ha
  Plant response rating, Blackgrass: 0
johnsongrass; [5]
  Plant response rating (0 to 100), Johnsongrass: 0
johnsongrass; [6]
  Plant response rating, Johnsongrass: 25
johnsongrass; Postemergence, 62 g ai/ha
  Plant response rating, Johnsongrass: 5
Pigweed [2]; [8]
  Plant response rating, Pigweed: 90
Pigweed [2]; 125 g ai/ha
  Plant response rating, Pigweed: 100
galium; [5]
  Plant response rating (0 to 100), Galium: 50
galium; [6]
  Plant response rating, Galium: 95
galium; Postemergence, 62 g ai/ha
  Plant response rating, Galium: 90
Barnyardgrass [3]; [8]
  Plant response rating, Barnyardgrass: 30
Barnyardgrass [3]; 125 g ai/ha
  Plant response rating, Barnyardgrass: 70
lambsquarters; [5]
  Plant response rating (0 to 100), Lambsquarters: 35
lambsquarters; [6]
  Plant response rating, Lambsquarters: 85
lambsquarters; Postemergence, 62 g ai/ha
  Plant response rating, Lambsquarters: 80
Wild oat; [5]
  Plant response rating (0 to 100), Oat, Wild: 0
Wild oat; [6]
  Plant response rating, Oat, Wild: 5
Wild oat; Postemergence, 62 g ai/ha
  Plant response rating, Oat, Wild: 0
Barnyardgrass [4]; [5]
  Plant response rating (0 to 100), Barnyardgrass: 5
Barnyardgrass [4]; [6]
  Plant response rating, Barnyardgrass: 10
Barnyardgrass [4]; [7]
  Plant response rating, Barnyardgrass: 10
Barnyardgrass [4]; Postemergence, 62 g ai/ha
  Plant response rating, Barnyardgrass: 10
Large (Lg) crabgrass; [5]
  Plant response rating (0 to 100), Crabgrass, Large: 10
Large (Lg) crabgrass; [6]
  Plant response rating, Crabgrass, Large: 20
Large (Lg) crabgrass; Postemergence, 62 g ai/ha
  Plant response rating, Crabgrass, Large: 15
Giant foxtail; [8]
  Plant response rating, Foxtail, Giant: 50
Giant foxtail; 125 g ai/ha
  Plant response rating, Foxtail, Giant: 100

From patent US9695155B2, “Herbicidal substituted pyrimidinyloxy benzene compounds” (E. I. DU PONT DE NEMOURS AND COMPANY, priority 2013, dated 2017)
